Test results taken from patent publication US20110046191A1, “COMBINATION OF A MUSCARINIC RECEPTOR ANTAGONIST AND A BETA-2-ADRENOCEPTOR AGONIST” (ARGENTA DISCOVERY LTD., priority 2007, published 2011).
“And” between values parts separate entries of the source, which are not always exact repeats. Identical values can stand only once. Counter-ions that a name gives are not always drawn.

Legend:
[1] = biological target: T1, Adrenergic β2 (Homo sapiens, UniProt P07550); assay: Adrenergic β2 mediated cAMP production in H292 cells (AlphaScreen); assay type: cell-based; conditions: Intrinsic Activity as a fraction relative to the maximum activity of formoterol
T1 construct: Adherent H292 cells were removed from tissue culture flasks; endogenous in cells; host or cells: H292 cells
T1 sequence (P07550 whole entry): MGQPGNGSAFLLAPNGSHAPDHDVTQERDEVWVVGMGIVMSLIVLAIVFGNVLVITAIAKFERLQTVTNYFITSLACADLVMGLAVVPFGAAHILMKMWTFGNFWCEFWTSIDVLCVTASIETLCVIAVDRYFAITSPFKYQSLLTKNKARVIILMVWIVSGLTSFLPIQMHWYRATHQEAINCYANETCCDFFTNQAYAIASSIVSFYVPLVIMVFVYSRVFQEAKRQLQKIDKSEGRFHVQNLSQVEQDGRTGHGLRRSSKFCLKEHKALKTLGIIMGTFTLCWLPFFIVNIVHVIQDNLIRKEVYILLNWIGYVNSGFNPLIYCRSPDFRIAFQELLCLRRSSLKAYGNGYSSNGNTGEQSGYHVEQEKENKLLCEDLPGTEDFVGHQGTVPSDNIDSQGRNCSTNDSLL
Protocol: Adrenergic β2 Mediated cAMP Production
H292 cells were grown in 225 cm2 flasks incubator at 37° C., 5% CO2 in RPMI medium containing, 10% (v/v) FBS (foetal bovine serum) and 2 mM L-glutamine.
Adherent H292 cells were removed from tissue culture flasks by treatment with Accutase™ cell detachment solution for 15 minutes. Flasks were incubated for 15 minutes in a humidified incubator at 37° C., 5% CO2. Detached cells were re-suspended in RPMI media (containing 10% (v/v) FBS and 2 mM L-glutamine) at 0.05×10^6 cells per mL. 5000 cells in 100 μL were added to each well of a tissue-culture-treated 96-well plate and the cells incubated overnight in a humidified incubator at 37° C., 5% CO2. The culture media was removed and cells were washed twice with 100 μL assay buffer and replaced with 50 μL assay buffer (HBSS solution containing 10 mM HEPES pH7.4 and 5 mM glucose). Cells were rested at room temperature for 20 minutes after which time 25 μL of rolipram (1.2 mM made up in assay buffer containing 2.4% (v/v) dimethylsulphoxide) was added. Cells were incubated with rolipram for 10 minutes after which time Compound A was added and the cells were incubated for 60 minutes at room temperature. The final rolipram concentration in the assay was 300 μM and final vehicle concentration was 1.6% (v/v) dimethylsulphoxide. The reaction was stopped by removing supernatants, washing once with 100 μL assay buffer and replacing with 50 μL lysis buffer. The cell monolayer was frozen at −80° C. for 30 minutes (or overnight).
The concentration of cAMP (cyclic adenosine monophosphate) in the cell lysate was determined using AlphaScreen™ methodology. […] The AlphaScreen™ signal was measured using an EnVision spectrophotometer (Perkin-Elmer Inc.) with the recommended manufacturer's settings. cAMP concentrations were determined by reference to a calibration curve determined in the same experiment using standard cAMP concentrations. […] Intrinsic Activity was expressed as a fraction relative to the maximum activity determined for formoterol in each experiment.

[2] = Gravimetric vapour sorption (GVS); assay type: physicochemical; conditions: at 80% RH, ambient temperature
Protocol: GVS profiles were measured using a Dynamic Vapour Sorption DVS-1 instrument. The solid sample ca. 1-5 mg was placed into a glass vessel and the weight of the sample was recorded during a dual cycle step method (40 to 90 to 0 to 90 to 0% relative humidity (RH), in steps of 10% RH). GVS profiles were recorded at ambient temperature.

[3] = system: Methacholine-induced bronchoconstriction in the guinea pig; assay: Lung function in anaesthetised guinea pigs: methacholine-induced bronchoconstriction; assay type: in vivo; conditions: 2 hours prior to methacholine, after 5 μg/kg methacholine i.v.
Protocol: Evaluation of Lung Function in Anaesthetised Guinea Pigs.
Male Dunkin-Hartley guinea pigs (300-600 g) were weighed and dosed with vehicle (0.05M phosphate, 0.1% Tween 80, 0.6% saline, pH 6) or compound via the intratracheal route under recoverable gaseous anaesthesia (5% halothane in oxygen). Animals were dosed with compound or vehicle two hours prior to the administration of methacholine. Guinea pigs were anaesthetised with pentobarbitone (1 mL/kg of 60 mg/mL solution i.p.) approximately 30 minutes prior to the first bronchoconstrictor administration. The trachea was cannulated and the animal ventilated using a constant volume respiratory pump (Harvard Rodent Ventilator model 683) at a rate of 60 breath/min and a tidal volume of 5 mL/kg. A jugular vein was cannulated for the administration of methacholine or maintenance anaesthetic (0.1 mL of pentobarbitone solution, 60 mg/mL, as required).
The animals were transferred to a Flexivent System (SCIREQ, Montreal, Canada) in order to measure airway resistance. The animals were ventilated (quasi-sinusoidal ventilation pattern) at 60 breaths/min at a tidal volume of 5 mL/kg. A positive end expiratory pressure of 2-3 cm H2O was applied. Respiratory resistance was measured using the Flexivent “snapshot” facility (1 second duration, 1 Hz frequency). Once a stable baseline resistance value had been obtained the animals were given methacholine in ascending doses (0.5, 1, 2, 3 and 5 μg/kg, i.v) at approximately 4-minute intervals via the jugular catheter. After each administration of bronchoconstrictor the peak resistance value was recorded. Guinea pigs were euthanised with approximately 1.0 mL pentobarbitone sodium (Euthatal) intravenously after the completion of the lung function measurements.
Percentage bronchoprotection produced by a compound was calculated at each dose of brochoconstrictor as follows:
Where % change Rveh is the mean of the maximum percentage change in airway resistance in the vehicle treated group. The results reported were measured after 5 μg/kg methacholine and were expressed as percentage bronchoprotection (mean±s.e.mean).
Guinea pigs were dosed with vehicle, 3 and 27 μg/kg compound (BA1), 0.2 μg/kg compound (MA2) (Crystalline Form A) or a combination of 3 μg/kg Compound (BA1) and 0.2 μg/kg Compound (MA2) via the intratracheal route. Administration of increasing intravenous doses of methacholine (0.5, 1, 2, 3 and 5 μg/kg) evoked dose-related bronchoconstriction in the vehicle treated animals ranging from 13±2.6% at 0.5 μg/kg to 2530±280% at 5 μg/kg two hours after vehicle administration (n=9).
[…] Administration of increasing intravenous doses of methacholine (0.5, 1, 2, 3 and 5 μg/kg) evoked dose-related bronchoconstriction in the vehicle treated animals ranging from 14±2.6% at 0.5 μg/kg to 2240±269% at 5 μg/kg two hours after vehicle administration (n=10).

[4] = biological target: T2, recombinant human adrenergic beta 1 receptors (Homo sapiens, UniProt P08588); assay: Adrenergic β1 selectivity binding assay ([125I]-Iodocyanopindolol); conditions: inhibition of [125I]-Iodocyanopindolol binding; read-out: β1 bind p IC50
T2 construct: purchased Euroscreen
T2 sequence (P08588 whole entry): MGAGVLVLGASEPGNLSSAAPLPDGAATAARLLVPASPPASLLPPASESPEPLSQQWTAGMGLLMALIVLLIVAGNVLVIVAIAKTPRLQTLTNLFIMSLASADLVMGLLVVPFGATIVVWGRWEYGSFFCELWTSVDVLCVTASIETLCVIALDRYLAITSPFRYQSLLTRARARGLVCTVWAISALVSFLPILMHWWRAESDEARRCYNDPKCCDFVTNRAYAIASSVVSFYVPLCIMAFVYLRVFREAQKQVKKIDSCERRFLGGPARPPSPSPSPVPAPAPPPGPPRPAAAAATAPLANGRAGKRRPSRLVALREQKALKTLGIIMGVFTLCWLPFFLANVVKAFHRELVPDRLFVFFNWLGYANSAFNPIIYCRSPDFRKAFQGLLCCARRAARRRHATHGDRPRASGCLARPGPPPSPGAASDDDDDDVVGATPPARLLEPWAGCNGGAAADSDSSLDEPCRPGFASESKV
Protocol: Membranes containing recombinant human adrenergic beta 1 receptors were obtained from Euroscreen. These were diluted in Assay Buffer (50 mM HEPES, 1 mM EDTA, 120 mM NaCl, 0.1% gelatin, pH 7.4) to provide a final concentration of membranes that gave a clear window between maximum and minimum specific binding.
Assays were performed in U-bottomed 96-well polypropylene plates. […] For each assay plate 8 replicates were obtained for [^125I]-Iodocyanopindolol binding in the presence of 10 μL vehicle (10% (v/v) DMSO in Assay Buffer; defining maximum binding) or 10 μL Propranolol (10 μM final concentration; defining non-specific binding (NSB)). Membranes were then added to achieve a final volume of 100 μL. […] Five washes with 250 μL wash buffer (50 mM HEPES, 1 mM EDTA, 120 mM NaCl, pH 7.4) were performed at 4° C. to remove unbound radioactivity. The plates were dried then sealed from underneath using Packard plate sealers and MicroScint-O (50 μL) was added to each well. The plates were sealed (TopSeal A) and filter-bound radioactivity was measured with a scintillation counter (TopCount, Packard BioScience) using a 3-minute counting protocol.
Total specific binding (B0) was determined by subtracting the mean NSB from the mean maximum binding. NSB values were also subtracted from values from all other wells.

[5] = Deaggregation properties of micronised Salt Form A (Fine Particle Fraction); assay type: physicochemical; conditions: micronised material, across 0-75% RH
Description: ‘Salt Form A’ was Micronised in a 50 mm jet mill, with ejector pressure 5 bar and milling pressure 1.5-2 bar, giving (90% yield). Particle size of the micronised material as determined by Malvern Laser Diffraction with dry powder feeder was d(0.1) 0.77 μm: d(0.5), 1.45μ: d(0.9): 2.65 μm.

[6] = biological target: T3, recombinant human α1D receptor (Homo sapiens, UniProt P25100); assay: Adrenergic α1D selectivity binding assay ([3H]-prazosin); conditions: inhibition of [3H]-prazosin binding; read-out: α1 bind pIC50 (converted)
T3 construct: expressed in transfected cells; host or cells: HEK293
T3 sequence (P25100 1-572): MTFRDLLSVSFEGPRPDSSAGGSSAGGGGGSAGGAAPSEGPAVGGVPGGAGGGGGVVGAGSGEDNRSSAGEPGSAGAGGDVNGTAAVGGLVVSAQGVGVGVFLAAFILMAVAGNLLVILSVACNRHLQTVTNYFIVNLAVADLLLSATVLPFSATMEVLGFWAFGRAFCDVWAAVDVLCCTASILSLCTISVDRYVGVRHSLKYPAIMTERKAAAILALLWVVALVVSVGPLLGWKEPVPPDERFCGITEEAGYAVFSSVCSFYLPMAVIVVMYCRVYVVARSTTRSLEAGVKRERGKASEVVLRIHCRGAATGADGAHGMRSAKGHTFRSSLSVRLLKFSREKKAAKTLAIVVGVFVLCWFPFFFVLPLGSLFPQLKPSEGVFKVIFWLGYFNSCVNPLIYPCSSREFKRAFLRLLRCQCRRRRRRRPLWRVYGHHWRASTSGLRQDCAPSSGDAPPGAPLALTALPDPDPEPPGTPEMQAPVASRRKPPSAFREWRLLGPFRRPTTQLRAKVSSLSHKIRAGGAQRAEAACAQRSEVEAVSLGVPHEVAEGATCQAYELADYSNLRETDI
Protocol: Membranes were prepared from human embryonic kidney 293 (HEK293) cells expressing recombinant human α1D receptor. These were diluted in Assay Buffer (50 mM HEPES, 1 mM EDTA, 0.1% gelatin, pH 7.4) to provide a final concentration of membranes that gave a clear window between maximum and minimum specific binding.
Assays were performed in U-bottomed 96-well polypropylene plates. 10 μL [^3H]-prazosin (0.3 nM final concentration) and 10 μL of Compound A (10× final concentration) were added to each test well. For each assay plate 8 replicates were obtained for [^3H]-prazosin binding in the presence of 10 μL vehicle (10% (v/v) DMSO in Assay Buffer; defining maximum binding) or 10 μL BMY7378 (10 μM final concentration; defining non-specific binding (NSB)). Membranes were then added to achieve a final volume of 100 μL. […] Five washes with 250 μL wash buffer (50 mM HEPES, 1 mM EDTA, pH 7.4) were performed at 4° C. to remove unbound radioactivity. […] The plates were sealed (TopSeal A) and filter-bound radioactivity was measured with a scintillation counter (TopCount, Packard BioScierice) using a 3-minute counting protocol.
Total specific binding (B0) was determined by subtracting the mean NSB from the mean maximum binding. […]

[7] = BA1 27 μg/kg intratracheal, dihydrobromide

SMILES	β2 Int Act [1]	GVS weight increase [2]	IC50 [4] [µM]	also measured
O=c1[nH]c2c(O)ccc([C@@H](O)CNCCSCCCNCCc3ccccc3Cl)c2s1 [BA3, 7-[(1R)-2-({2-[(3-{[2-(2-Chlorophenyl)ethyl]amino}propyl)thio]ethyl}amino)-1-hydroxyethyl]-4-hydroxy-1,3-benzothiazol-2(3H)-one dihydrobromide]	0.8			
C[N+](C)(CCCOc1ccccc1)Cc1cnc([C@](O)(c2ccccc2)C2CCCCC2)o1.[Br-] [MA2 Crystalline Form A, [2-((R)-Cyclohexyl-hydroxy-phenyl-methyl)-oxazol-5-ylmethyl]-dimethyl-(3-phenoxy-propyl)-ammonium bromide]		0.8 % w/w		
CCN(CC)CCN(CCNCCc1ccc(O)c2[nH]c(=O)sc12)C(=O)CCOCCc1cccc2ccccc12 [BA1, N-[2-(Diethylamino)ethyl]-N-(2-{[2-(4-hydroxy-2-oxo-2,3-dihydro-1,3-benzothiazol-7-yl)ethyl]amino}ethyl)-3-[2-(1-naphthyl)ethoxy]propanamide dihydrobromide]	0.8		> 10	increase in resistance ([3]; BA1 1 μg/kg intratracheal): 1380±333%; inhibition of methacholine-induced bronchoconstriction ([3]; BA1 1 μg/kg intratracheal): 38%; increase in resistance ([3]; BA1 3 μg/kg intratracheal): 2090±239%; inhibition of methacholine-induced bronchoconstriction ([3]; BA1 3 μg/kg intratracheal): 17%; increase in resistance [3, 7]: 470±221% and 242±69%; inhibition of methacholine-induced bronchoconstriction [3, 7]: 81% and 89%
C[N+](C)(CCOCc1ccc(Cl)cc1)Cc1cnc([C@](O)(c2ccccc2)C2CCCCC2)o1 [MA11 Salt Form A, [2-(4-chloro-benzyloxy)-ethyl]-[2-((R)-cyclohexyl-hydroxy-phenyl-methyl)-oxazol-5-ylmethyl]-dimethyl-ammonium hemi-naphthalene-1,5-disulfonate]		less than 0.5 % w/w		Fine Particle Fraction (FPF) [5]: > 60%
C[N+](C)(CCCOc1ccccc1)Cc1cnc([C@](O)(c2ccccc2)C2CCCCC2)o1 [MA7 Form 2, [2-((R)-Cyclohexyl-hydroxy-phenyl-methyl)-oxazol-5-ylmethyl]-dimethyl-(3-phenoxy-propyl)-ammonium hemi-naphthalene-1,5-disulfonate]		0.7 % w/w		
CCN(CC)CCN(CCNCCc1ccc(O)c2[nH]c(=O)sc12)C(=O)CCOCCc1cccc(Cl)c1 [BA2, N-[2-(Diethylamino)ethyl]-N-(2-{[2-(4-hydroxy-2-oxo-2,3-dihydro-1,3-benzothiazol-7-yl)ethyl]amino}ethyl)-3-[2-(3-chlorophenyl)ethoxy]propanamide dihydrobromide]	0.7		> 10	IC50 [6]: > 0.794 µM
